Results as given in US8414878B2, “Irilis biopreparation based on bacillus-strain bacteria, bacillus subtilis and bacillus licheniformis contained therein” (priority 2005, dated 2013).

What was measured:
[1] = tested on: B. subtilis VKPMB-8611; experiment: Sensitivity to antibiotics, delay zones of culture growth; type: cell-based, Bacillus subtilis; conditions: strain B. subtilis VKPMB-8611
[2] = tested on: B. licheniformis VKPM B-8610; experiment: as above; type: cell-based, Bacillus licheniformis; conditions: strain B. licheniformis VKPM B-8610

## CCn1cc(C(=O)O)c(=O)c2ccc(C)nc21 [Nalidixic acid]
[1]
  Diameter of delay zones of cultures growth: 21 ± 0.1 mm
[2]
  Diameter of delay zones of cultures growth: 15 + 0.1 mm

## C[C@@H](O)[C@H]1C(=O)N2C(C(=O)O)=C(SCCN=CN)C[C@H]12 [Imipenems]
[1]
  Diameter of delay zones of cultures growth: 38 ± 0.2 mm
[2]
  Diameter of delay zones of cultures growth: 30 + 0.1 mm

## COc1cc(Cc2cnc(N)nc2N)cc(OC)c1OC [Ttrimethoprim]
[1]
  Diameter of delay zones of cultures growth: 23 ± 0.1 mm
[2]
  Diameter of delay zones of cultures growth: 25 + 0.2 mm

## CO/N=C(\C(=O)N[C@@H]1C(=O)N2C(C(=O)O)=C(COC(C)=O)CS[C@H]12)c1csc(N)n1 [Cefotaxime]
[1]
  Diameter of delay zones of cultures growth: 15 ± 0.1 mm
[2]
  Diameter of delay zones of cultures growth: 9 + 0.1 mm

## CO/N=C(\C(=O)N[C@@H]1C(=O)N2C(C(=O)O)=C(COC(N)=O)CS[C@H]12)c1ccco1 [Cefuroxime]
[1]
  Diameter of delay zones of cultures growth: 2 ± 0.1 mm
[2]
  Diameter of delay zones of cultures growth: 3 ± 0.1 mm

## COc1cccc(OC)c1C(=O)N[C@@H]1C(=O)N2[C@@H]1SC(C)(C)[C@@H]2C(=O)O [Methicillin]
[1]
  Diameter of delay zones of cultures growth: 20 ± 0.1 mm
[2]
  Diameter of delay zones of cultures growth: 10 ± 0D

## CC1(C)S[C@@H]2[C@H](NC(=O)[C@H](N)c3ccccc3)C(=O)N2[C@H]1C(=O)O [Ampicillin]
[1]
  Diameter of delay zones of cultures growth: 11 ± 0.2 mm
[2]
  Diameter of delay zones of cultures growth: 0 mm

## O=C(N[C@H](CO)[C@H](O)c1ccc([N+](=O)[O-])cc1)C(Cl)Cl [Chloramphenicol]
[1]
  Diameter of delay zones of cultures growth: 18 ± 0.3 mm
[2]
  Diameter of delay zones of cultures growth: 10 ± 0.1 mm

## Gentamicin
[1]
  Diameter of delay zones of cultures growth: 25 ± 0.3 mm
[2]
  Diameter of delay zones of cultures growth: 19 + 0.2 mm

## Cn1nnnc1SCC1=C(C(=O)O)N2C(=O)[C@@H](NC(=O)[C@H](O)c3ccccc3)[C@H]2SC1 [Cefamandole]
[1]
  Diameter of delay zones of cultures growth: 35 ± 0.3 mm
[2]
  Diameter of delay zones of cultures growth: 15 + 0.1 mm

## Cc1onc(-c2ccccc2)c1C(=O)N[C@@H]1C(=O)N2[C@@H]1SC(C)(C)[C@@H]2C(=O)O [Oxacillin]
[1]
  Diameter of delay zones of cultures growth: 15 ± 0.3 mm
[2]
  Diameter of delay zones of cultures growth: 11 + 0.1 mm

## Cc1nnc(SCC2=C(C(=O)O)N3C(=O)[C@@H](NC(=O)Cn4cnnn4)[C@H]3SC2)s1 [Cefazolin]
[1]
  Diameter of delay zones of cultures growth: 25 ± 0.2 mm
[2]
  Diameter of delay zones of cultures growth: 19 + 0.2 mm

## CCN1CCN(C(=O)N[C@@H](C(=O)N[C@@H]2C(=O)N3C(C(=O)O)=C(CSc4nnnn4C)CS[C@H]23)c2ccc(O)cc2)C(=O)C1=O [Cefoperazone]
[1]
  Diameter of delay zones of cultures growth: 15 ± 0.2 mm
[2]
  Diameter of delay zones of cultures growth: 13 + 0.1 mm

## CN[C@H](CC(C)C)C(=O)N[C@H]1C(=O)N[C@@H](CC(N)=O)C(=O)N[C@H]2C(=O)N[C@H]3C(=O)N[C@H](C(=O)N[C@H](C(=O)O)c4cc(O)cc(O)c4-c4cc3ccc4O)[C@H](O)c3ccc(c(Cl)c3)Oc3cc2cc(c3O[C@@H]2O[C@H](CO)[C@@H](O)[C@H](O)[C@H]2O[C@H]2C[C@](C)(N)[C@H](O)[C@H](C)O2)Oc2ccc(cc2Cl)[C@H]1O [Vancomycin]
[1]
  Diameter of delay zones of cultures growth: 12 ± 0.1 mm
[2]
  Diameter of delay zones of cultures growth: 10 ± 0.1 mm

## CO/N=C(\C(=O)N[C@@H]1C(=O)N2C(C(=O)O)=C(CSc3nc(=O)c(=O)[nH]n3C)CS[C@H]12)c1csc(N)n1 [Ceftriaxone]
[1]
  Diameter of delay zones of cultures growth: 20 + 0.4 mm
[2]
  Diameter of delay zones of cultures growth: 12 + 02 mm

## CN(C)[C@@H]1C(O)=C(C(N)=O)C(=O)[C@@]2(O)C(O)=C3C(=O)c4c(O)cccc4[C@@](C)(O)[C@H]3C[C@@H]12 [Tetracycline]
[1]
  Diameter of delay zones of cultures growth: 26 + 0.1 mm
[2]
  Diameter of delay zones of cultures growth: 24 + 0.1 mm

## CCN1CCN(C(=O)N[C@@H](C(=O)N[C@@H]2C(=O)N3[C@@H]2SC(C)(C)[C@@H]3C(=O)O)c2ccccc2)C(=O)C1=O [Piperacillin]
[1]
  Diameter of delay zones of cultures growth: 15 + 03 mm
[2]
  Diameter of delay zones of cultures growth: 11 + 0.1 mm

## CC(=O)OCC1=C(C(=O)O)N2C(=O)[C@@H](NC(=O)Cc3cccs3)[C@H]2SC1 [Cephalothin]
[1]
  Diameter of delay zones of cultures growth: 35 ± 0.1 mm
[2]
  Diameter of delay zones of cultures growth: 21 + 0.3 mm

## CO[C@@]1(NC(=O)C(C(=O)O)c2ccc(O)cc2)C(=O)N2C(C(=O)O)=C(CSc3nnnn3C)CO[C@@H]21 (stereo partly drawn) [Mocsalactam]
[2]
  Diameter of delay zones of cultures growth: 12 + 03 mm

## NC[C@H]1O[C@H](O[C@H]2[C@H](O)[C@@H](O[C@H]3O[C@H](CO)[C@@H](O)[C@H](N)[C@H]3O)[C@H](N)C[C@@H]2N)[C@H](N)C[C@@H]1O [Tobramycin]
[1]
  Diameter of delay zones of cultures growth: 25 ± 0.1 mm
[2]
  Diameter of delay zones of cultures growth: 20 + 0.2 mm

## CC1(C)S[C@@H]2[C@H](NC(=O)[C@H](N)c3ccc(O)cc3)C(=O)N2[C@H]1C(=O)O [Amoscipillin]
[1]
  Diameter of delay zones of cultures growth: 19 ± 0.2 mm
[2]
  Diameter of delay zones of cultures growth: 16 + 0.1 mm

## CC1(C)S[C@@H]2[C@H](NC(=O)C(C(=O)O)c3ccccc3)C(=O)N2[C@H]1C(=O)O (stereo partly drawn) [Carbenicillin]
[1]
  Diameter of delay zones of cultures growth: 23 ± 0.5 mm
[2]
  Diameter of delay zones of cultures growth: 20 + 0.1 mm

## CC1(C)S[C@@H]2[C@H](NC(=O)Cc3ccccc3)C(=O)N2[C@H]1C(=O)O [Benzylpenicillin]
[1]
  Diameter of delay zones of cultures growth: 7 ± 0.1 mm
[2]
  Diameter of delay zones of cultures growth: 3 ± 0.2 mm

## NCC[C@H](O)C(=O)N[C@@H]1C[C@H](N)[C@@H](O[C@H]2O[C@H](CN)[C@@H](O)[C@H](O)[C@H]2O)[C@H](O)[C@H]1O[C@H]1O[C@H](CO)[C@@H](O)[C@H](N)[C@H]1O [Amicacin]
[1]
  Diameter of delay zones of cultures growth: 22 ± 0.3 mm
[2]
  Diameter of delay zones of cultures growth: 17 + 0.2 mm

## CO[C@@]1(NC(=O)Cc2cccs2)C(=O)N2C(C(=O)O)=C(COC(N)=O)CS[C@@H]21 [Cefoxitin]
[1]
  Diameter of delay zones of cultures growth: 18 ± 0.1 mm
[2]
  Diameter of delay zones of cultures growth: 13 + 0.1 mm

## CC1(C)S[C@@H]2[C@H](NC(=O)[C@H](C(=O)O)c3ccsc3)C(=O)N2[C@H]1C(=O)O [Ticarcillin]
[1]
  Diameter of delay zones of cultures growth: 25 ± 0.4 mm
[2]
  Diameter of delay zones of cultures growth: 21 + 0.2 mm

## CCn1cc(C(=O)O)c(=O)c2cc(F)c(N3CCNCC3)cc21 [Norfloxacin]
[1]
  Diameter of delay zones of cultures growth: 24 ± 0.2 mm
[2]
  Diameter of delay zones of cultures growth: 25 + 0.2 mm

## NC[C@H]1O[C@H](O[C@H]2[C@H](O)[C@@H](O[C@H]3O[C@H](CO)[C@@H](O)[C@H](N)[C@H]3O)[C@H](N)C[C@@H]2N)[C@H](O)[C@@H](O)[C@@H]1O [Kanamycin]
[1]
  Diameter of delay zones of cultures growth: 22 ± 0.2 mm
[2]
  Diameter of delay zones of cultures growth: 21 + 0.1 mm

## O=C1CN(/N=C/c2ccc([N+](=O)[O-])o2)C(=O)N1 [Nitrofurantoin]
[1]
  Diameter of delay zones of cultures growth: 15 + 0.2 mm
[2]
  Diameter of delay zones of cultures growth: 20 + 0.1 mm

## CC(C)(O/N=C(\C(=O)N[C@@H]1C(=O)N2C(C(=O)[O-])=C(C[n+]3ccccc3)CS[C@H]12)c1csc(N)n1)C(=O)O [Ceftazidime]
[1]
  Diameter of delay zones of cultures growth: 6 ± 0.3 mm
[2]
  Diameter of delay zones of cultures growth: 13 + 02 mm

## CC1(C)S[C@@H]2[C@H](NC(=O)[C@H](NC(=O)N3CCNC3=O)c3ccccc3)C(=O)N2[C@H]1C(=O)O [Azlocillin]
[1]
  Diameter of delay zones of cultures growth: 19 ± 0.1 mm
[2]
  Diameter of delay zones of cultures growth: 16 + 0.1 mm

## CCC[C@@H]1C[C@@H](C(=O)N[C@@H]([C@H]2O[C@H](SC)[C@H](O)[C@@H](O)[C@H]2O)[C@H](C)Cl)N(C)C1 [Clindamycin]
[1]
  Diameter of delay zones of cultures growth: 9 + 0.2 mm
[2]
  Diameter of delay zones of cultures growth: 12 + 0.1 mm

## CO/N=C(\C(=O)N[C@@H]1C(=O)N2C(C(=O)O)=CCS[C@H]12)c1csc(N)n1 [Ceftizoxime]
[1]
  Diameter of delay zones of cultures growth: 3 ± 0.1 mm
[2]
  Diameter of delay zones of cultures growth: 11 ± 0.1 mm

## CC1(C)S[C@@H]2[C@H](NC(=O)[C@H](NC(=O)N3CCN(S(C)(=O)=O)C3=O)c3ccccc3)C(=O)N2[C@H]1C(=O)O [Mezlocillin]
[1]
  Diameter of delay zones of cultures growth: 21 ± 0.2 mm
[2]
  Diameter of delay zones of cultures growth: 15 + 0.2 mm

## Polymyxin E
[1]
  Diameter of delay zones of cultures growth: 11 + 0.1 mm
[2]
  Diameter of delay zones of cultures growth: 10 + 0.2 mm
